In patent publication US9949479B2 (priority 2015, dated 2018):
Several values for one entry are separate records, joined by “and”; a condition that tells them apart may be missing. Identical values can stand only once. Like-named read-outs stand apart in the source and are kept apart here.

Columns and labels:
rust [1] = format: in vivo
[2] = set-up: species or system wheat; conditions: in vivo
powdery mildew [3] = format: in vivo; conditions: dose as in E154
wheat scab [4] = format: in vivo, Fusarium spp.
[5] = format: in vivo, wheat; conditions: dose as in E162
[6] = tested on: DON toxin synthesis capability of thalli; set-up: species or system Fusarium spp.; conditions: in vivo
[7] = format: in vivo, wheat; conditions: vs control; dose as in E145
leaf rust fungus = format: in vivo; conditions: seed treatment; dose as in E133
powdery mildew [8] = format: in vivo
wheat scab [9] = format: in vivo, Fusarium spp.; remark: listed apart in the source
wheat scab [10] = format: in vivo, Fusarium spp.; remark: listed apart in the source
wheat scab [11] = format: in vivo, Fusarium spp.; remark: listed apart in the source
wheat scab [12] = format: in vivo, Fusarium spp.; remark: listed apart in the source
powdery mildew [13] = format: in vivo; remark: listed apart in the source
[14] = format: in vivo, barley; conditions: dose as in E154
leaf blight [15] = format: in vivo; conditions: dose as in E145
rust [16] = format: in vivo; conditions: dose as in E162
powdery mildew [17] = format: in vivo; conditions: dose as in E162
Tri5 gene = format: cell-based, Fusarium asiaticum
leaf blight [18] = format: in vivo; conditions: dose as in E162
[19] = Serial 10: preparation 30 g/mu, metconazole 6 g ai./mu alone
[20] = Serial 11: preparation 22.5 g/mu, metconazole 4.5 g ai./mu alone
[21] = Serial 12: preparation 15 g/mu, metconazole 3 g ai./mu alone
[22] = Serial 5: preparation 75 g/mu, jinggangmycin 15 g ai./mu alone
[23] = Serial 6: preparation 60 g/mu, jinggangmycin 12 g ai./mu alone
[24] = Serial 7: preparation 45 g/mu, jinggangmycin 9 g ai./mu alone
[25] = Serial 8: preparation 30 g/mu, jinggangmycin 6 g ai./mu alone

CC1(C)CCC(Cc2ccc(Cl)cc2)C1(O)Cn1cncn1 (centres unmarked) [Metconazole]
Disease Index Prevention Effect % Rust (rust [1]; Serial 9: preparation 100 g/mu, metconazole 20 g ai./mu alone): 84.4% | Disease Index Prevention Effect % Rust (rust [1]; Serial 10: preparation 80 g/mu, metconazole 16 g ai./mu alone): 77.3% | Disease Index Prevention Effect % Rust (rust [1]; Serial 11: preparation 40 g/mu, metconazole 8 g ai./mu alone): 70.6% | Disease Index Prevention Effect % Rust (rust [1]; Serial 12: preparation 20 g/mu, metconazole 4 g ai./mu alone): 63.8% | Thousand Kernel Weight [2]: 42.8 g and 41.8 g and 42.0 g and 39.2 g | Disease Index Prevention Effect % Powdery Mildew (powdery mildew [3]): 52.6% and 65.3% and 71.8% and 82.2% | Theoretical Prevention Effect on Head Blight % (wheat scab [4]; Abbott method, dose as in E162): 66.7% and 61.8% and 40.9% and 33.6% | Disease Index Prevention Effect % Head Blight (wheat scab [4]; tank mixture sprayed twice, g ai. agent/mu, Jinggangmycin+Metconazole by row: r11 3+15, r12 5+10, r13 5+5, r14 10+5, r15 50+3, r16 100+3, Jinggangmycin alone r17 100, r18 50, r19 10, r20 5, r21 3, Metconazole alone r22 15, r23 10, r24 5, r25 3, r26 Polyketone 57): 66.7% and 61.8% and 50.9% and 33.6% | Grain Toxin Content [5]: 2.01 μg/g of kernels and 2.24 μg/g of kernels and 2.38 μg/g of kernels and 2.94 μg/g of kernels | DON Synthesis Capability [6]: 20.16 and 19.80 and 19.96 and 19.54 and 19.20 and 19.38 | DON Reduction Percentage (%) [7]: 88.4% and 79.9% and 71.4% and 66.6% | Incidence Prevention Effect % Rust (leaf rust fungus): 85.5% and 82.0% and 71.0% and 54.5% | Disease Index Prevention Effect % Powdery Mildew (powdery mildew [8]; Serial 6: preparation 100 g/mu, jinggangmycin 0, metconazole 20 g ai./mu): 98.2% | Disease Index Prevention Effect % Head Blight (wheat scab [9]; Serial 8: preparation 50 g/mu, metconazole 10 g ai./mu alone): 75.6% | Disease Index Prevention Effect % Head Blight (wheat scab [9]; Serial 10: preparation 15 g/mu, metconazole 3 g ai./mu alone): 39.1% | Theoretical Prevention Effect of Mixed Agent on Head Blight (wheat scab [10]; Abbott method, dose as in E145): 65.8 and 61.3 and 48.4 and 39.6 | Disease Index Prevention Effect % Head Blight (wheat scab [10]; sprayed twice, g ai. agent/mu, Jinggangmycin+Metconazole by row: r16 1+15, r17 3+10, r18 5+5, r19 5+10, r20 5+15, r21 10+3, r22 10+10, r23 10+15, r24 50+3, r25 50+10, r26 50+15, r27 100+5, r28 100+10, Jinggangmycin alone r29 100, r30 50, r31 10, r32 5, r33 3, r34 1, Metconazole alone r35 15, r36 10, r37 5, r38 3, r39 Carbendazim 40): 65.8% and 61.3% and 48.4% and 39.6% | Disease Index Prevention Effect % Head Blight (wheat scab [11]; Serial 6: preparation 100, jinggangmycin 0, metconazole 20 g ai./mu): 82.4% | Disease Index Prevention Effect % Head Blight (wheat scab [12]; [19]): 52.3% | Disease Index Prevention Effect % Head Blight (wheat scab [12]; [20]): 49.6% | Disease Index Prevention Effect % Head Blight (wheat scab [12]; [21]): 28.6% | Disease Index Prevention Effect % Powdery Mildew (powdery mildew [13]; [19]): 60.6% | Disease Index Prevention Effect % Powdery Mildew (powdery mildew [13]; [20]): 58.6% | Disease Index Prevention Effect % Powdery Mildew (powdery mildew [13]; [21]): 45.1% | Grain Toxin Content [14]: 3.86 mg of DON/Kg of grain and 3.70 mg of DON/Kg of grain and 3.09 mg of DON/Kg of grain and 3.26 mg of DON/Kg of grain | Toxin Reduction Percentage % ([14]; vs control): 54.7% and 56.6% and 63.8% and 61.8%

OCC1=C[C@H](NC2C[C@H](CO)[C@@H](OC3O[C@H](CO)[C@@H](O)[C@H](O)[C@H]3O)[C@H](O)[C@H]2O)[C@H](O)[C@@H](O)[C@@H]1O (some centres unmarked) [Jinggangmycin A, jinggangmycin A]
Disease Index Prevention Effect % Rust (rust [1]; Serial 5: preparation 100 g/mu, jinggangmycin 20 g ai./mu alone): 6.8% | Disease Index Prevention Effect % Rust (rust [1]; Serial 6: preparation 80 g/mu, jinggangmycin 16 g ai./mu alone): 6.5% | Disease Index Prevention Effect % Rust (rust [1]; Serial 7: preparation 40 g/mu, jinggangmycin 8 g ai./mu alone): 0% | Disease Index Prevention Effect % Rust (rust [1]; Serial 8: preparation 20 g/mu, jinggangmycin 4 g ai./mu alone): 0% | Thousand Kernel Weight [2]: 39.2 g and 41.1 g and 39.8 g and 39.5 g | Disease Index Prevention Effect % Powdery Mildew (powdery mildew [3]): 0% and 3.4% | Grain Toxin Content [5]: 2.89 μg/g of kernels and 3.24 μg/g of kernels and 3.86 μg/g of kernels and 4.20 μg/g of kernels and 4.77 μg/g of kernels | Disease Index Prevention Effect % Leaf Blight (leaf blight [15]): 8.3% and 7.8% and 0% | Incidence Prevention Effect % Rust (leaf rust fungus): 0% and 4.5% | Disease Index Prevention Effect % Powdery Mildew (powdery mildew [8]; Serial 5: preparation 100 g/mu, jinggangmycin 20, metconazole 0 g ai./mu): 10.6% | Disease Index Prevention Effect % Head Blight (wheat scab [9]; Serial 5: preparation 50 g/mu, jinggangmycin 10 g ai./mu alone): 32.4% | Disease Index Prevention Effect % Head Blight (wheat scab [9]; Serial 6: preparation 37.5 g/mu, jinggangmycin 7.5 g ai./mu alone): 24.2% | Disease Index Prevention Effect % Head Blight (wheat scab [9]; Serial 7: preparation 15 g/mu, jinggangmycin 3 g ai./mu alone): 0% | Disease Index Prevention Effect % Rust (rust [16]): 5.1% and 3.6% and 0% | Disease Index Prevention Effect % Head Blight (wheat scab [11]; Serial 5: preparation 100, jinggangmycin 20, metconazole 0 g ai./mu): 34.2% | Disease Index Prevention Effect % Powdery Mildew (powdery mildew [17]): 7.3% and 4.4% and 4.5% and 0% | Rate of Inhibition on Relative Expression Level of Tri5 Gene (Tri5 gene): 66% and 84% and 87% and 90% and 59% | Disease Index Prevention Effect % Head Blight (wheat scab [12]; [22]): 34.2% | Disease Index Prevention Effect % Head Blight (wheat scab [12]; [23]): 10.2% | Disease Index Prevention Effect % Head Blight (wheat scab [12]; [24]): 9.4% | Disease Index Prevention Effect % Head Blight (wheat scab [12]; [25]): 7.4% | Disease Index Prevention Effect % Leaf Blight (leaf blight [18]): 8.5% and 7.9% and 0% | Disease Index Prevention Effect % Powdery Mildew (powdery mildew [13]; [22]): 8.6% | Disease Index Prevention Effect % Powdery Mildew (powdery mildew [13]; [23]): 6.6% | Disease Index Prevention Effect % Powdery Mildew (powdery mildew [13]; [24]): 3.0% | Disease Index Prevention Effect % Powdery Mildew (powdery mildew [13]; [25]): 1.8% | Grain Toxin Content [14]: 6.67 mg of DON/Kg of grain and 5.28 mg of DON/Kg of grain and 4.62 mg of DON/Kg of grain and 3.86 mg of DON/Kg of grain and 3.49 mg of DON/Kg of grain
